The text below walks through data of patent US10611740B2, “Aryl dihydro-2H-benzo[b][1,4]oxazine sulfonamide and related compounds for use as agonists of RORγ and the treatment of disease” (Lycera Corporation, priority 2015, dated 2020).

One assay addresses T1, Gal4-RORγ-LBD (Homo sapiens, UniProt P51449).
T1 construct: expressed in transfected cells; host or cells: HEK-293 cells (pcDNA3.1neo plasmid)
T1 sequence (P51449 269-508 limits assumed): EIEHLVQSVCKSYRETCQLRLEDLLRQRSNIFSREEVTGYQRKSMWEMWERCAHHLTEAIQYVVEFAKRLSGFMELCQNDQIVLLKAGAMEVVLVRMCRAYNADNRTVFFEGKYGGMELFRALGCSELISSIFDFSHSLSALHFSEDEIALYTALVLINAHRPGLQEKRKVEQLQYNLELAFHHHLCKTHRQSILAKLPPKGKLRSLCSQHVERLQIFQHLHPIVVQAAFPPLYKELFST
Description: Gal4-RORγ Luciferase Reporter Assay in HEK-293T Cells. It counts as cell-based. To be noted: HEK-293 cells, luciferase reporter, with 2 μM ursolic acid. Summed up:
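Luminescence read-out (One-Glo, 10 min RT) after overnight compound exposure at 37 °C in HEK-293 cells carrying Gal4-RORγ-LBD plus a Gal4-luciferase reporter, in the presence of 2 μM ursolic acid. Max Response is the upper plateau from a 4-parameter logistic fit, normalized to untreated signal = 100.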

The next assay addresses T2, RORγ-LBD (Homo sapiens, UniProt P51449).
T2 construct: made in house; host or cells: SF9 cells (baculovirus)
T2 sequence (P51449 269-508 limits assumed): T1 sequence (P51449 269-508 limits assumed)
Description: RORγ-Ligand Binding Domain (LBD) TR-FRET Assay.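 As to TR-FRET Assay Max Response: 665/615 nm ratio relative to signal without ursolic acid or compound set at 100.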 The format is biochemical. Summed up:
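TR-FRET read-out using a biotin-tagged SRC1 coactivator LXXLL peptide (200 nM final), with the antagonist ursolic acid present at 2 μM final. Receptor is His-tagged LBD expressed in SF9 cells, ~3 nM final in pH 7.0 Tris/KCl/EDTA/DTT/BSA buffer; compounds in 1% DMSO final.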

Where only a bound is given, the exact number is not on record here.

As for `COc1cccc(-c2ccc3c(c2)N(S(=O)(=O)c2cccc(C(F)(F)F)c2)C[C@H](CCC(=O)NCC(=O)O)O3)c1` [Compound 23K, (S)-(3-(6-(3-methoxyphenyl)-4-((3-(trifluoromethyl)-phenyl)sulfonyl)-3,4-dihydro-2H-benzo[b][1,4]oxazin-2-yl)propanoyl)glycine], at Gal4-RORγ-LBD, the EC50 lay in the range of 0.5 to 5 µM and the “Gal4-RORγ Assay Max Response” value was “** (The symbol “**” indicates a value in the range of greater than 90 to 150)”. Besides, at RORγ-LBD, the EC50 was under 0.5 µM and the “TR-FRET Assay Max Response” value is listed as “**** (The symbol “****” indicates a value greater than 200)”.

Take `COc1cccc(-c2ccc3c(c2)N(S(=O)(=O)c2cccc(C(F)(F)F)c2)C[C@H](CCC(=O)N2CCC(C(=O)O)CC2)O3)c1` [Compound 23L, (S)-1-(3-(6-(3-methoxyphenyl)-4-((3-(trifluoromethyl)-phenyl)sulfonyl)-3,4-dihydro-2H-benzo[b][1,4]oxazin-2-yl)propanoyl)piperidine-4-carboxylic acid]: at Gal4-RORγ-LBD, the EC50 is under 0.5 µM and the “Gal4-RORγ Assay Max Response” value is “** (The symbol “**” indicates a value in the range of greater than 90 to 150)”. On RORγ-LBD, the EC50 was under 0.5 µM and the “TR-FRET Assay Max Response” value is “**** (The symbol “****” indicates a value greater than 200)”.

On to `COc1cccc(-c2ccc3c(c2)N(S(=O)(=O)c2cccc(C(F)(F)F)c2)C[C@H](CCC(=O)N2CCS(=O)(=O)CC2)O3)c1` [Compound 23M, (S)-1-(1,1-dioxidothio-morpholino)-3-(6-(3-methoxyphenyl)-4-((3-(trifluoromethyl)phenyl)sulfonyl)-3,4-dihydro-2H-benzo[b][1,4]-oxazin-2-yl)propan-1-one], for which, at Gal4-RORγ-LBD, the EC50 is under 0.5 µM and the “Gal4-RORγ Assay Max Response” value is reported as “*** (The symbol “***” indicates a value in the range of greater than 150 to 200)”. Further, on RORγ-LBD, the EC50 is under 0.5 µM and the “TR-FRET Assay Max Response” value is “**** (The symbol “****” indicates a value greater than 200)”.

On to `O=C(CC[C@H]1CN(S(=O)(=O)c2cccc(C(F)(F)F)c2)c2cc(-c3cccc(F)c3F)ccc2O1)N1CCS(=O)(=O)CC1` [Compound 23N, (S)-3-(6-(2,3-difluorophenyl)-4-((3-(trifluoromethyl)-phenyl)sulfonyl)-3,4-dihydro-2H-benzo[b][1,4]oxazin-2-yl)-1-(1,1-dioxidothiomorpholino)propan-1-one], for which, at Gal4-RORγ-LBD, the EC50 was under 0.5 µM and the “Gal4-RORγ Assay Max Response” value is given as “*** (The symbol “***” indicates a value in the range of greater than 150 to 200)”. Further, on RORγ-LBD, the EC50 is under 0.5 µM and the “TR-FRET Assay Max Response” value was “**** (The symbol “****” indicates a value greater than 200)”.

Take `O=C(O)C1CCN(C(=O)CC[C@H]2CN(S(=O)(=O)c3cccc(C(F)(F)F)c3)c3cc(-c4cccc(F)c4F)ccc3O2)CC1` [Compound 23P, (S)-1-(3-(6-(2,3-difluorophenyl)-4-((3-(trifluoromethyl)-phenyl)sulfonyl)-3,4-dihydro-2H-benzo[b][1,4]oxazin-2-yl)propanoyl)piperidine-4-carboxylic acid]: on Gal4-RORγ-LBD, the EC50 was under 0.5 µM and the “Gal4-RORγ Assay Max Response” value is listed as “*** (The symbol “***” indicates a value in the range of greater than 150 to 200)”. On RORγ-LBD, the EC50 was under 0.5 µM and the “TR-FRET Assay Max Response” value is reported as “**** (The symbol “****” indicates a value greater than 200)”.

On to `O=C(O)C1CCN(C(=O)NC[C@H]2CN(S(=O)(=O)c3cccc(C(F)(F)F)c3)c3cc(-c4cc(F)ccc4F)ccc3O2)CC1` [Compound 23Q, (S)-1-(((6-(2,5-difluorophenyl)-4-((3-(trifluoromethyl)-phenyl)sulfonyl)-3,4-dihydro-2H-benzo[b][1,4]oxazin-2-yl)methyl)carbamoyl)piperidine-4-carboxylic acid], for which, at Gal4-RORγ-LBD, the EC50 is 0.5 to 5 µM and the “Gal4-RORγ Assay Max Response” value is on record as “*** (The symbol “***” indicates a value in the range of greater than 150 to 200)”. Also, at RORγ-LBD, the EC50 was under 0.5 µM and the “TR-FRET Assay Max Response” value was “**** (The symbol “****” indicates a value greater than 200)”.

Consider `CN(CCC(=O)O)C(=O)NC[C@H]1CN(S(=O)(=O)c2cccc(C(F)(F)F)c2)c2cc(-c3cc(F)ccc3F)ccc2O1` [Compound 23R, (S)-3-(3-((6-(2,5-difluorophenyl)-4-((3-(trifluoromethyl)phenyl)-sulfonyl)-3,4-dihydro-2H-benzo[b][1,4]oxazin-2-yl)methyl)-1-methylureido)propanoic acid], for which, on Gal4-RORγ-LBD, the EC50 is 0.5 to 5 µM and the “Gal4-RORγ Assay Max Response” value is listed as “** (The symbol “**” indicates a value in the range of greater than 90 to 150)”. Further, on RORγ-LBD, the 50% effective concentration (EC50) was under 0.5 µM and the “TR-FRET Assay Max Response” value is reported as “**** (The symbol “****” indicates a value greater than 200)”.

Take `O=C(CC[C@H]1CN(S(=O)(=O)c2cccc(C(F)(F)F)c2)c2cc(-c3cc(F)ccc3F)ccc2O1)NC[C@H](O)C(=O)O` [Compound 23S, (S)-3-(3-((S)-6-(2,5-difluoro-phenyl)-4-((3-(trifluoromethyl)-phenyl)sulfonyl)-3,4-dihydro-2H-benzo[b][1,4]oxazin-2-yl)propanamido)-2-hydroxypropanoic acid]: at Gal4-RORγ-LBD, the EC50 was in the range of 0.5 to 5 µM and the “Gal4-RORγ Assay Max Response” value is recorded as “** (The symbol “**” indicates a value in the range of greater than 90 to 150)”. For the same compound, at RORγ-LBD, the half-maximal effective concentration (EC50) is under 0.5 µM and the “TR-FRET Assay Max Response” value is “**** (The symbol “****” indicates a value greater than 200)”.

Regarding `O=C(O)C1CCN(C(=O)NCC[C@H]2CN(S(=O)(=O)c3cccc(C(F)(F)F)c3)c3cc(-c4cc(F)ccc4F)ccc3O2)CC1` [Compound 23T, (S)-1-((2-(6-(2,5-difluorophenyl)-4-((3-(trifluoromethyl)phenyl)-sulfonyl)-3,4-dihydro-2H-benzo[b][1,4]oxazin-2-yl)ethyl)carbamoyl)piperidine-4-carboxylic acid], on Gal4-RORγ-LBD, the half-maximal effective concentration (EC50) was under 0.5 µM and the “Gal4-RORγ Assay Max Response” value is given as “** (The symbol “**” indicates a value in the range of greater than 90 to 150)”. In addition, at RORγ-LBD, the EC50 was under 0.5 µM and the “TR-FRET Assay Max Response” value is reported as “**** (The symbol “****” indicates a value greater than 200)”.

As to `O=C(O)[C@H]1CCCN1C(=O)NCC[C@H]1CN(S(=O)(=O)c2cccc(C(F)(F)F)c2)c2cc(-c3cc(F)ccc3F)ccc2O1` [Compound 23U, ((2-((S)-6-(2,5-difluorophenyl)-4-((3-(trifluoromethyl)phenyl)-sulfonyl)-3,4-dihydro-2H-benzo[b][1,4]oxazin-2-yl)ethyl)carbamoyl)-D-proline], on Gal4-RORγ-LBD, the EC50 was under 0.5 µM and the “Gal4-RORγ Assay Max Response” value is “** (The symbol “**” indicates a value in the range of greater than 90 to 150)”. At RORγ-LBD, the EC50 was under 0.5 µM and the “TR-FRET Assay Max Response” value was “**** (The symbol “****” indicates a value greater than 200)”.

As for `O=C(O)[C@@H]1CCCN1C(=O)NCC[C@H]1CN(S(=O)(=O)c2cccc(C(F)(F)F)c2)c2cc(-c3cc(F)ccc3F)ccc2O1` [Compound 23V, ((2-((S)-6-(2,5-difluorophenyl)-4-((3-(trifluoromethyl)phenyl)-sulfonyl)-3,4-dihydro-2H-benzo[b][1,4]oxazin-2-yl)ethyl)carbamoyl)-L-proline], on Gal4-RORγ-LBD, the EC50 is 0.5 to 5 µM and the “Gal4-RORγ Assay Max Response” value is “** (The symbol “**” indicates a value in the range of greater than 90 to 150)”. At RORγ-LBD, the EC50 is under 0.5 µM and the “TR-FRET Assay Max Response” value is given as “**** (The symbol “****” indicates a value greater than 200)”.

Regarding `CN(CC(=O)O)C(=O)NCC[C@H]1CN(S(=O)(=O)c2cccc(C(F)(F)F)c2)c2cc(-c3cc(F)ccc3F)ccc2O1` [Compound 23W, (S)-N-((2-(6-(2,5-difluorophenyl)-4-((3-(trifluoromethyl)phenyl)-sulfonyl)-3,4-dihydro-2H-benzo[b][1,4]oxazin-2-yl)ethyl)carbamoyl)-N-methylglycine], at Gal4-RORγ-LBD, the EC50 was under 0.5 µM and the “Gal4-RORγ Assay Max Response” value is listed as “** (The symbol “**” indicates a value in the range of greater than 90 to 150)”. Also, at RORγ-LBD, the EC50 is under 0.5 µM and the “TR-FRET Assay Max Response” value is reported as “**** (The symbol “****” indicates a value greater than 200)”.

Consider `O=C(O)CNC(=O)NCC[C@H]1CN(S(=O)(=O)c2cccc(C(F)(F)F)c2)c2cc(-c3cc(F)ccc3F)ccc2O1` [Compound 23X, (S)-((2-(6-(2,5-difluorophenyl)-4-((3-(trifluoromethyl)phenyl)-sulfonyl)-3,4-dihydro-2H-benzo[b][1,4]oxazin-2-yl)ethyl)carbamoyl)glycine], for which, at Gal4-RORγ-LBD, the EC50 was in the range of 0.5 to 5 µM and the “Gal4-RORγ Assay Max Response” value is recorded as “** (The symbol “**” indicates a value in the range of greater than 90 to 150)”. For the same compound, on RORγ-LBD, the concentration for a half-maximal effect (EC50) is under 0.5 µM and the “TR-FRET Assay Max Response” value is reported as “**** (The symbol “****” indicates a value greater than 200)”.
